Reference: publication PMC7552967, “Anti-Melanoma Activities of Artemisone and Prenylated Amino-Artemisinins in Combination With Known Anticancer Drugs” (Frontiers in Pharmacology, 2020)

Assays:
[1] = system: A375 melanoma cells; assay: Intracellular ROS, DCFH-DA assay, A375; assay type: cell-based, human; details: A375, 12 h treatment; result in words
Procedure: HaCat and A375 cells were seeded at 25,000 cells/well in 96-well plates (Black plate, Clear bottom, Corning, Costar®, NY, USA) and incubated until cells were ~90% confluent. Serum-free DMEM without phenol red (Thermo Fisher Scientific, Gibco, Carlsbad, CA, USA) was used for all experiments. Cells were exposed to compounds or H2O2 (500 µM) for 12 h. Cell staining with ROS fluorescent indicator 2’,7’-dichlorodihydrofluorescein diacetate (DCFH-DA) was performed 1.5 h before the end of the 12-h exposure time. A kinetic analysis was then performed at 37°C using a microplate reader (SpectraMax® ParadigmTM Molecular Devices, Sunnyvale, CA, USA) by measuring the DCF fluorescence (excitation 485 nm and emission 535 nm) every 10 min for 1 h. […] The Bradford assay (Coomassie blue colorimetric method) was then performed in order to determine the relative amount of protein per well, as an indication of cell number per well, and all fluorescence measurements were normalized relative to the cell number. The background fluorescence produced by blank medium controls and unstained but treated cell controls were subtracted from DCFH-DA stained cells. The DCF fluorescence measured at the beginning of the analysis (time 0) was subtracted from the DCF fluorescence at the indicated times for the kinetic analysis (results not shown). […]
The levels of intracellular ROS were determined using the DCFH-DA assay. […]

[2] = system: A375 melanoma cells; assay: FITC Annexin V/PI flow cytometry, A375; assay type: cell-based, human; details: A375, 24 h
Procedure: The FITC Annexin V apoptosis detection kit I (BD Pharmigen™, BD Biosciences, San Jose, CA, USA) was used for the detection of apoptosis using flow cytometry. FITC Annexin V emits green fluorescence which indicates apoptosis, whereas propidium iodide (PI) emits red fluorescence and stains dead cells ([Vermes et al., 1995]). The assay was performed according to the manufacturer’s instructions with minor alterations. In brief, cells were seeded in a 96-well plate and grown to ~90% confluence. The cells were exposed to amounts of the prenylated piperazine derivatives and combinations with elesclomol-Cu(II) 1-Cu corresponding to the IC50 values. […] After incubation, 100 µl 1X binding buffer was added to each tube and then analyzed using the BD FACSVerse™ and BD FACSuite™ Software. […] At least 10,000 cellular events were analyzed for each sample. A logarithmic amplification scale was employed and events plotted on forward scatter (FSC), side scatter (SSC), green fluorescence (FL1) and red fluorescence (FL2). […]
Flow cytometry was employed to establish if the observed decrease in cell viability in melanoma cells was of necrotic or apoptotic origin. Cultured melanoma and keratinocyte cells were exposed to predetermined IC50 concentrations of the prenylated piperazine-DHA derivatives and analyzed using the FITC Annexin V/PI flow cytometry assay. […]
Figure 8 Apoptosis measured by FITC Annexin V/PI assay. […]

| Compound | Intracellular ROS (DCF fluorescence fold change vs untreated control) [1] | Cells undergoing apoptosis ([2]; IC50 concentrations (6 45 µM, 7 30 µM, 1-Cu 2 nM; combinations 1:1)) | Late apoptosis/necrosis (FITC-Annexin V positive and PI positive) ([2]; 45 µM) |
| --- | --- | --- | --- |
| CC(C)=CCC/C(C)=C/CC/C(C)=C/CN1CCN([C@@H]2O[C@@H]3O[C@@]4(C)CC[C@H]5[C@H](C)CC[C@@H]([C@H]2C)[C@@]35OO4)CC1 [Farnesylpiperazine-DHA 7, farnesylpiperazine-DHA] | not significantly higher than the untreated control | 30.5 ± 3.7% |  |
| CC(C)=CCC/C(C)=C/CN1CCN([C@@H]2O[C@@H]3O[C@@]4(C)CC[C@H]5[C@H](C)CC[C@@H]([C@H]2C)[C@@]35OO4)CC1 [Geranylpiperazine-DHA 6, geranylpiperazine-DHA] | not significantly higher when compared to the untreated control |  | 37.7 ± 2.1% |
